Data from patent publication US9738634B2, “Heterocyclic amide compound and herbicide” (SYNGENTA PARTICIPATIONS AG, priority 2013, dated 2017).

Key:
Assay type in all cases: in vivo
[1] = system: barnyard grass; assay: Test Example 2: weedkilling efficacy, growth period weed treatment in the submerged state; A: barnyard grass; settings: treatment dosage 252 g/ha
In short: (§1)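 Weeds treated at the 1-2 leaf stage by application of diluted emulsion onto floodwater (4 cm depth, alluvial soil) at specified g/ha. Grown in greenhouse at 25 to 30° C; herbicidal effect rated three weeks after treatment.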

[2] = system: birds-eye speedwell; assay: Test Example 3: weedkilling efficacy through soil treatment; p: birds-eye speedwell; settings: treatment dosage 315 g/ha
In short: (§2)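 Crop and weed responses were judged three weeks after a uniform surface spray of the water-diluted emulsion at the given g/ha rate. Seeds sat beneath about 1.5 cm of sterilized diluvial soil, and boxes stood in a greenhouse at 25 to 30° C.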

[3] = system: beet; assay: Test Example 3: soil treatment, effect on crop; f: beet; settings: treatment dosage 315 g/ha
In short: as §2

[4] = system: black-grass; assay: Test Example 4: weedkilling efficacy by foliar treatment; H: black-grass; settings: treatment dosage 315 g/ha
In short: (§3)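 Seeds are spot-sown into sterilized diluvial soil and covered with about 1.5 cm of soil. After 14 days' greenhouse growth at 25 to 30° C, plants are sprayed on stems and leaves with diluted emulsion at the stated g/ha rate, then scored at 3 weeks.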

[5] = system: Indian mallow; assay: Test Example 3: weedkilling efficacy through soil treatment; K: Indian mallow; settings: treatment dosage 315 g/ha
In short: as §2

[6] = system: directly sown rice; assay: Test Example 3: soil treatment, effect on crop; b: directly sown rice; settings: treatment dosage 315 g/ha
In short: as §2

[7] = system: Italian ryegrass; assay: Test Example 4: weedkilling efficacy by foliar treatment; I: Italian ryegrass; settings: treatment dosage 315 g/ha
In short: as §3

[8] = system: green foxtail; assay: Test Example 4: weedkilling efficacy by foliar treatment; E: green foxtail; settings: treatment dosage 315 g/ha
In short: as §3

[9] = system: crabgrass; assay: Test Example 4: weedkilling efficacy by foliar treatment; D: crabgrass; settings: treatment dosage 315 g/ha
In short: as §3

[10] = system: wheat; assay: Test Example 4: foliar treatment, effect on crop; e: wheat; settings: treatment dosage 315 g/ha
In short: as §3

[11] = system: Indian mallow; assay: Test Example 4: weedkilling efficacy by foliar treatment; K: Indian mallow; settings: treatment dosage 315 g/ha
In short: as §3

[12] = system: corn; assay: Test Example 4: foliar treatment, effect on crop; c: corn; settings: treatment dosage 315 g/ha
In short: as §3

[13] = system: chickweed; assay: Test Example 4: weedkilling efficacy by foliar treatment; N: chickweed; settings: treatment dosage 315 g/ha
In short: as §3

[14] = system: crabgrass; assay: Test Example 3: weedkilling efficacy through soil treatment; D: crabgrass; settings: treatment dosage 315 g/ha
In short: as §2

[15] = system: oval-leafed pondweed; assay: Test Example 2: weedkilling efficacy, growth period weed treatment in the submerged state; C: oval-leafed pondweed; settings: treatment dosage 252 g/ha
In short: as §1

[16] = system: Italian ryegrass; assay: Test Example 3: weedkilling efficacy through soil treatment; I: Italian ryegrass; settings: treatment dosage 315 g/ha
In short: as §2

[17] = system: oval-leafed pondweed; assay: Test Example 1: weedkilling efficacy, preemergent weed treatment in the submerged state; C: oval-leafed pondweed; settings: treatment dosage 252 g/ha
In short: (§4)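 Pots of alluvial soil were flooded to a 4 cm depth. Mixed weed seeds were sown and 2.5 leaf-stage rice seedlings transplanted. On sowing day, water-diluted emulsion was applied to the water surface (dose in g/ha). After 3 weeks at 25–30 °C, effects were rated.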

[18] = system: bulrush; assay: Test Example 1: weedkilling efficacy, preemergent weed treatment in the submerged state; B: bulrush; settings: treatment dosage 252 g/ha
In short: as §4

[19] = system: soybean; assay: Test Example 4: foliar treatment, effect on crop; d: soybean; settings: treatment dosage 315 g/ha
In short: as §3

[20] = system: chickweed; assay: Test Example 3: weedkilling efficacy through soil treatment; N: chickweed; settings: treatment dosage 315 g/ha
In short: as §2

[21] = system: wheat; assay: Test Example 3: soil treatment, effect on crop; e: wheat; settings: treatment dosage 315 g/ha
In short: as §2

[22] = system: redroot pigweed; assay: Test Example 3: weedkilling efficacy through soil treatment; L: redroot pigweed; settings: treatment dosage 315 g/ha
In short: as §2

[23] = system: green foxtail; assay: Test Example 3: weedkilling efficacy through soil treatment; E: green foxtail; settings: treatment dosage 315 g/ha
In short: as §2

[24] = system: fig-leafed goosefoot; assay: Test Example 4: weedkilling efficacy by foliar treatment; M: fig-leafed goosefoot; settings: treatment dosage 315 g/ha
In short: as §3

[25] = system: corn; assay: Test Example 3: soil treatment, effect on crop; c: corn; settings: treatment dosage 315 g/ha
In short: as §2

[26] = system: redroot pigweed; assay: Test Example 4: weedkilling efficacy by foliar treatment; L: redroot pigweed; settings: treatment dosage 315 g/ha
In short: as §3

[27] = system: catchweed; assay: Test Example 4: weedkilling efficacy by foliar treatment; O: catchweed; settings: treatment dosage 315 g/ha
In short: as §3

[28] = system: beet; assay: Test Example 4: foliar treatment, effect on crop; f: beet; settings: treatment dosage 315 g/ha
In short: as §3

[29] = system: barnyard grass; assay: Test Example 1: weedkilling efficacy, preemergent weed treatment in the submerged state; A: barnyard grass; settings: treatment dosage 252 g/ha
In short: as §4

[30] = system: directly sown rice; assay: Test Example 4: foliar treatment, effect on crop; b: directly sown rice; settings: treatment dosage 315 g/ha
In short: as §3

[31] = system: black-grass; assay: Test Example 3: weedkilling efficacy through soil treatment; H: black-grass; settings: treatment dosage 315 g/ha
In short: as §2

[32] = system: soybean; assay: Test Example 3: soil treatment, effect on crop; d: soybean; settings: treatment dosage 315 g/ha
In short: as §2

[33] = system: fig-leafed goosefoot; assay: Test Example 3: weedkilling efficacy through soil treatment; M: fig-leafed goosefoot; settings: treatment dosage 315 g/ha
In short: as §2

[34] = system: transplanted rice; assay: Test Example 1: preemergent weed treatment in the submerged state, effect on crop; a: transplanted rice; settings: treatment dosage 252 g/ha
In short: as §4

[35] = system: birds-eye speedwell; assay: Test Example 4: weedkilling efficacy by foliar treatment; p: birds-eye speedwell; settings: treatment dosage 315 g/ha
In short: as §3

[36] = system: bulrush; assay: Test Example 2: weedkilling efficacy, growth period weed treatment in the submerged state; B: bulrush; settings: treatment dosage 252 g/ha
In short: as §1

[37] = system: catchweed; assay: Test Example 3: weedkilling efficacy through soil treatment; O: catchweed; settings: treatment dosage 315 g/ha
Excerpt: Weedkilling Efficacy Test Through Soil Treatment
Sterilized diluvial soil was introduced into 21 cm long, 13 cm wide, 7 cm deep plastic boxes, and seeds of crabgrass, green foxtail, barnyard grass, wild oat, black-grass, Italian ryegrass, common wind-grass, Indian mallow, redroot pigweed, fig-leafed goosefoot, chickweed, catchweed, birds-eye speedwell, corn, soybean, rice, wheat, beet and rapeseed were each spot-sown, and covered with about 1.5 cm of soil. Next, emulsions of compounds of the present invention prepared according to compounding example 2 were diluted with water to give the specified dosages, and applied uniformly onto the soil surface with a small sprayer. The plants were grown by placing the plastic boxes in a greenhouse at 25 to 30° C., and 3 weeks after the pesticide treatment the effect on each type of plant was investigated on the basis of the assessment criteria of test example 1.
A: barnyard grass, B: bulrush, C: oval-leafed pondweed, D: crabgrass, E: green foxtail, F: barnyard grass, G: wild oat, H: black-grass, I: Italian ryegrass, J: common wind-grass, K: Indian mallow, L: redroot pigweed, M: fig-leafed goosefoot, N: chickweed, O: catchweed, p: birds-eye speedwell, a: transplanted rice, b: directly sown rice, c: corn, d: soybean, e: wheat, f: beet, g: rapeseed
Further, pesticide dosage (g/ha) indicates the concentration regulated such that treatment was with only the stated number of grams (g), when calculated per hectare (ha).

Row | SMILES | A (barnyard grass) weedkilling efficacy grade [1] | P (birds-eye speedwell) weedkilling efficacy grade [2] | f (beet) effect on crop grade [3] | H (black-grass) weedkilling efficacy grade [4] | K (Indian mallow) weedkilling efficacy grade [5] | b (directly sown rice) effect on crop grade [6] | I (Italian ryegrass) weedkilling efficacy grade [7] | E (green foxtail) weedkilling efficacy grade [8] | D (crabgrass) weedkilling efficacy grade [9] | e (wheat) effect on crop grade [10] | K (Indian mallow) weedkilling efficacy grade [11] | c (corn) effect on crop grade [12] | N (chickweed) weedkilling efficacy grade [13] | D (crabgrass) weedkilling efficacy grade [14] | C (oval-leafed pondweed) weedkilling efficacy grade [15] | I (Italian ryegrass) weedkilling efficacy grade [16] | C (oval-leafed pondweed) weedkilling efficacy grade [17] | B (bulrush) weedkilling efficacy grade [18] | d (soybean) effect on crop grade [19] | N (chickweed) weedkilling efficacy grade [20] | other results
1 | CC1=C(c2ccccc2)C(=O)N(C(C)(C)C(=O)Nc2nc(C)ns2)CO1 [B-1-13] | 5 (weed kill ratio 90% or more, (practically complete withering)) | 5 (weed kill ratio 90% or more, (practically complete withering)) | 5 (weed kill ratio 90% or more, (practically complete withering)) | 5 (weed kill ratio 90% or more, (practically complete withering)) | 2 (weed kill ratio 20% or more, less than 40%) | 5 (weed kill ratio 90% or more, (practically complete withering)) | 5 (weed kill ratio 90% or more, (practically complete withering)) | 5 (weed kill ratio 90% or more, (practically complete withering)) | 5 (weed kill ratio 90% or more, (practically complete withering)) | 4 (weed kill ratio 70% or more, less than 90%) | 5 (weed kill ratio 90% or more, (practically complete withering)) | 2 (weed kill ratio 20% or more, less than 40%) | 4 (weed kill ratio 70% or more, less than 90%) | 5 (weed kill ratio 90% or more, (practically complete withering)) | 5 (weed kill ratio 90% or more, (practically complete withering)) | 5 (weed kill ratio 90% or more, (practically complete withering)) | 5 (weed kill ratio 90% or more, (practically complete withering)) | 5 (weed kill ratio 90% or more, (practically complete withering)) | 5 (weed kill ratio 90% or more, (practically complete withering)) | 4 (weed kill ratio 70% or more, less than 90%) | e (wheat) effect on crop grade [21]: 5 (weed kill ratio 90% or more, (practically complete withering)); L (redroot pigweed) weedkilling efficacy grade [22]: 4 (weed kill ratio 70% or more, less than 90%); E (green foxtail) weedkilling efficacy grade [23]: 5 (weed kill ratio 90% or more, (practically complete withering)); M (fig-leafed goosefoot) weedkilling efficacy grade [24]: 4 (weed kill ratio 70% or more, less than 90%); c (corn) effect on crop grade [25]: 3 (weed kill ratio 40% or more, less than 70%); L (redroot pigweed) weedkilling efficacy grade [26]: 5 (weed kill ratio 90% or more, (practically complete withering)); O (catchweed) weedkilling efficacy grade [27]: 5 (weed kill ratio 90% or more, (practically complete withering)); f (beet) effect on crop grade [28]: 3 (weed kill ratio 40% or more, less than 70%); A (barnyard grass) weedkilling efficacy grade [29]: 5 (weed kill ratio 90% or more, (practically complete withering)); b (directly sown rice) effect on crop grade [30]: 5 (weed kill ratio 90% or more, (practically complete withering)); H (black-grass) weedkilling efficacy grade [31]: 5 (weed kill ratio 90% or more, (practically complete withering)); d (soybean) effect on crop grade [32]: 4 (weed kill ratio 70% or more, less than 90%); M (fig-leafed goosefoot) weedkilling efficacy grade [33]: 4 (weed kill ratio 70% or more, less than 90%); a (transplanted rice) effect on crop grade [34]: 0 (weed kill ratio 5% or less (practically no effect)); P (birds-eye speedwell) weedkilling efficacy grade [35]: 4 (weed kill ratio 70% or more, less than 90%); B (bulrush) weedkilling efficacy grade [36]: 5 (weed kill ratio 90% or more, (practically complete withering)); O (catchweed) weedkilling efficacy grade [37]: 5 (weed kill ratio 90% or more, (practically complete withering))
2 | CCc1nsc(NC(=O)C(C)(C)N2COC(C)=C(c3ccccc3)C2=O)n1 [B-1-14] | 5 (weed kill ratio 90% or more, (practically complete withering)) | 5 (weed kill ratio 90% or more, (practically complete withering)) | 5 (weed kill ratio 90% or more, (practically complete withering)) | 5 (weed kill ratio 90% or more, (practically complete withering)) | 3 (weed kill ratio 40% or more, less than 70%) | 5 (weed kill ratio 90% or more, (practically complete withering)) | 5 (weed kill ratio 90% or more, (practically complete withering)) | 5 (weed kill ratio 90% or more, (practically complete withering)) | 5 (weed kill ratio 90% or more, (practically complete withering)) | 4 (weed kill ratio 70% or more, less than 90%) | 5 (weed kill ratio 90% or more, (practically complete withering)) | 3 (weed kill ratio 40% or more, less than 70%) | 4 (weed kill ratio 70% or more, less than 90%) | 5 (weed kill ratio 90% or more, (practically complete withering)) | 5 (weed kill ratio 90% or more, (practically complete withering)) | 5 (weed kill ratio 90% or more, (practically complete withering)) | 5 (weed kill ratio 90% or more, (practically complete withering)) | 5 (weed kill ratio 90% or more, (practically complete withering)) | 4 (weed kill ratio 70% or more, less than 90%) | 4 (weed kill ratio 70% or more, less than 90%) | e (wheat) effect on crop grade [21]: 5 (weed kill ratio 90% or more, (practically complete withering)); L (redroot pigweed) weedkilling efficacy grade [22]: 5 (weed kill ratio 90% or more, (practically complete withering)); E (green foxtail) weedkilling efficacy grade [23]: 5 (weed kill ratio 90% or more, (practically complete withering)); M (fig-leafed goosefoot) weedkilling efficacy grade [24]: 4 (weed kill ratio 70% or more, less than 90%); c (corn) effect on crop grade [25]: 0 (weed kill ratio 5% or less (practically no effect)); L (redroot pigweed) weedkilling efficacy grade [26]: 5 (weed kill ratio 90% or more, (practically complete withering)); O (catchweed) weedkilling efficacy grade [27]: 4 (weed kill ratio 70% or more, less than 90%); f (beet) effect on crop grade [28]: 5 (weed kill ratio 90% or more, (practically complete withering)); A (barnyard grass) weedkilling efficacy grade [29]: 5 (weed kill ratio 90% or more, (practically complete withering)); b (directly sown rice) effect on crop grade [30]: 4 (weed kill ratio 70% or more, less than 90%); H (black-grass) weedkilling efficacy grade [31]: 5 (weed kill ratio 90% or more, (practically complete withering)); d (soybean) effect on crop grade [32]: 3 (weed kill ratio 40% or more, less than 70%); M (fig-leafed goosefoot) weedkilling efficacy grade [33]: 5 (weed kill ratio 90% or more, (practically complete withering)); a (transplanted rice) effect on crop grade [34]: 1 (weed kill ratio 5% or more, less than 20%); P (birds-eye speedwell) weedkilling efficacy grade [35]: 4 (weed kill ratio 70% or more, less than 90%); B (bulrush) weedkilling efficacy grade [36]: 5 (weed kill ratio 90% or more, (practically complete withering)); O (catchweed) weedkilling efficacy grade [37]: 5 (weed kill ratio 90% or more, (practically complete withering))
